Measurements from ChEMBL document CHEMBL4257548, “Phenothiazine antioxidants increase mitochondrial biogenesis and frataxin levels in Friedreich's ataxia cells” (Medchemcomm, 2018).
Active and inactive are the calls of the source. The rule behind the calls is not given here.

Columns and labels:
GM15850 [1] = test: Induction of mitochondrial biogenesis in human GM15850 cells assessed as increase in ratio of COX1 to SDH-A protein levels at 50 to 250 nM after 24 to 48 hrs by ELISA; type: functional, cell-based
GM16216 [2] = test: Increase in frataxin expression in human GM16216 cells at 50 to 250 nM after 24 to 48 hrs by ELISA; type: functional, cell-based
GM15850 [3] = test: Inhibition of ATP production in human GM15850 cells after 24 hrs by Vialight reagent based luminescence assay; type: functional, cell-based
GM15850 [4] = test: Cytoprotection against DEM-induced toxicity in human GM15850 cells assessed as increase in cell viability at 0.5 to 2.5 uM pretreated for 16 hrs followed by DEM addition and measured after 5 hrs by live/dead staining based flow cytometry; type: functional
GM16216 [5] = test: Cytoprotection against DEM-induced toxicity in human GM16216 cells assessed as increase in cell viability at 0.5 to 2.5 uM pretreated for 16 hrs followed by DEM addition and measured after 5 hrs by live/dead staining based flow cytometry; type: functional
GM16216 [6] = test: Inhibition of ATP production in human GM16216 cells after 24 hrs by Vialight reagent based luminescence assay; type: functional, cell-based
GM15850 [7] = test: Effect on ATP production in human GM15850 cells at 0.1 uM after 24 hrs by Vialight reagent based luminescence assay; type: functional, cell-based
GM16216 [8] = test: Induction of mitochondrial biogenesis in human GM16216 cells assessed as increase in ratio of COX1 to SDH-A protein levels at 50 to 250 nM after 24 to 48 hrs by ELISA; type: functional, cell-based
GM15850 [9] = test: Increase in frataxin expression in human GM15850 cells at 50 to 250 nM after 24 to 48 hrs by ELISA; type: functional, cell-based
GM16216 [10] = test: Effect on ATP production in human GM16216 cells at 0.1 uM after 24 hrs by Vialight reagent based luminescence assay; type: functional, cell-based
GM15850 [11] = test: Effect on mitochondrial membrane potential in human GM15850 cells assessed as loss of mitochondrial membrane potential at 0.25 uM after 16 hrs by JC1 staining based flow cytometry (reference value: 13%); type: functional
GM15850 [12] = test: Increase in frataxin expression in human GM15850 cells at 250 nM after 24 to 48 hrs by ELISA; type: functional, cell-based
GM15850 [13] = test: Increase in frataxin expression in human GM15850 cells at 50 nM after 24 to 48 hrs by ELISA; type: functional, cell-based
GM16216 [14] = test: Increase in frataxin expression in human GM16216 cells at 50 nM after 24 to 48 hrs by ELISA; type: functional, cell-based
GM15850 [15] = test: Effect on mitochondrial membrane potential in human GM15850 cells assessed as intact mitochondrial membrane at 0.25 uM after 16 hrs by JC1 staining based flow cytometry (reference value: 87%); type: functional
GM15850 [16] = test: Cytotoxicity against human GM15850 cells at 2.5 uM after 24 to 48 hrs by live/dead staining-based flow cytometry; type: cell-based; details: gm15850, 2.5 µM
GM16216 [17] = test: Effect on mitochondrial membrane potential in human GM16216 cells assessed as intact mitochondrial membrane at 0.25 uM after 16 hrs by JC1 staining based flow cytometry (reference value: 87%); type: functional
GM16216 [18] = test: Increase in frataxin expression in human GM16216 cells at 250 nM after 24 to 48 hrs by ELISA; type: functional, cell-based
GM16216 [19] = test: Cytotoxicity against human GM16216 cells at 2.5 uM after 24 to 48 hrs by live/dead staining-based flow cytometry; type: cell-based; details: gm16216, 2.5 µM
GM16216 [20] = test: Effect on mitochondrial membrane potential in human GM16216 cells assessed as loss of mitochondrial membrane potential at 0.25 uM after 16 hrs by JC1 staining based flow cytometry (reference value: 13%); type: functional
GM16216 [21] = test: Induction of mitochondrial biogenesis in human GM16216 cells assessed as ratio of COX1 to SDH-A protein levels at 250 after 48 hrs by ELISA relative to control; type: functional
GM16216 [22] = test: Induction of mitochondrial biogenesis in human GM16216 cells assessed as ratio of COX1 to SDH-A protein levels at 50 after 48 hrs by ELISA relative to control; type: functional
GM15850 [23] = test: Restoration of total aconitase activity in human GM15850 cells at 250 nM after 5 days by colorimetric method relative to control; type: functional
GM15850 [24] = test: Effect on frataxin expression in human GM15850 cells at 250 nM after 24 hrs by ELISA relative to control; type: functional
GM15850 [25] = test: Induction of mitochondrial biogenesis in human GM15850 cells assessed as ratio of COX1 to SDH-A protein levels at 50 after 24 hrs by ELISA relative to control; type: functional
GM15850 [26] = test: Effect on frataxin expression in human GM15850 cells at 250 nM after 48 hrs by ELISA relative to control; type: functional
GM15850 [27] = test: Cytoprotection against DEM-induced toxicity in human GM15850 cells assessed as increase in cell viability at 0.1 to 2.5 uM pretreated for 16 hrs followed by DEM addition and measured after 5 hrs by live/dead staining based flow cytometry; type: functional
GM16216 [28] = test: Effect on frataxin expression in human GM16216 cells at 250 nM after 48 hrs by ELISA relative to control; type: functional
GM16216 [29] = test: Induction of mitochondrial biogenesis in human GM16216 cells assessed as ratio of COX1 to SDH-A protein levels at 50 after 24 hrs by ELISA relative to control; type: functional
GM16216 [30] = test: Effect on frataxin expression in human GM16216 cells at 50 nM after 48 hrs by ELISA relative to control; type: functional
GM15850 [31] = test: Effect on frataxin expression in human GM15850 cells at 50 nM after 48 hrs by ELISA relative to control; type: functional
GM16216 [32] = test: Induction of mitochondrial biogenesis in human GM16216 cells assessed as ratio of COX1 to SDH-A protein levels at 250 after 24 hrs by ELISA relative to control; type: functional
GM16216 [33] = test: Effect on frataxin expression in human GM16216 cells at 50 nM after 24 hrs by ELISA relative to control; type: functional
GM15850 [34] = test: Restoration of total aconitase activity in human GM15850 cells at 50 nM after 5 days by colorimetric method relative to control; type: functional
GM15850 [35] = test: Induction of mitochondrial biogenesis in human GM15850 cells assessed as ratio of COX1 to SDH-A protein levels at 50 after 48 hrs by ELISA relative to control; type: functional
GM15850 [36] = test: Induction of mitochondrial biogenesis in human GM15850 cells assessed as ratio of COX1 to SDH-A protein levels at 250 after 48 hrs by ELISA relative to control; type: functional
GM15850 [37] = test: Effect on frataxin expression in human GM15850 cells at 50 nM after 24 hrs by ELISA relative to control; type: functional
GM16216 [38] = test: Cytoprotection against DEM-induced toxicity in human GM16216 cells assessed as increase in cell viability at 0.1 to 2.5 uM pretreated for 16 hrs followed by DEM addition and measured after 5 hrs by live/dead staining based flow cytometry; type: functional
GM15850 [39] = test: Induction of mitochondrial biogenesis in human GM15850 cells assessed as ratio of COX1 to SDH-A protein levels at 250 after 24 hrs by ELISA relative to control; type: functional
GM16216 [40] = test: Effect on frataxin expression in human GM16216 cells at 250 nM after 24 hrs by ELISA relative to control; type: functional
GM16216 [41] = test: Restoration of total aconitase activity in human GM16216 cells at 50 nM after 5 days by colorimetric method relative to control; type: functional
GM16216 [42] = test: Restoration of total aconitase activity in human GM16216 cells at 250 nM after 5 days by colorimetric method relative to control; type: functional

Compound | inhibition (GM15850 [3]) | Activity (GM15850 [4]) | Activity (GM16216 [5]) | inhibition (GM16216 [6]) | Activity (GM15850 [7]) | Activity (GM16216 [10]) | Activity (GM15850 [11]) [%] | Activity (GM15850 [15]) [%] | Activity (GM15850 [16]) | Activity (GM16216 [17]) [%] | Activity (GM16216 [19]) | Activity (GM16216 [20]) [%] | Activity (GM16216 [21]) [%] | Activity (GM16216 [22]) [%] | Activity (GM15850 [23]) [%] | Activity (GM15850 [24]) [%] | Activity (GM15850 [25]) [%] | Activity (GM15850 [26]) [%] | Activity (GM16216 [28]) [%] | Activity (GM16216 [29]) [%] | other results
CN(C)c1ccc2nc3ccc(=[N+](C)C)cc-3sc2c1 | Dose-dependent effect | Active | Active | Dose-dependent effect | inactive | inactive |  |  |  |  |  |  |  |  |  |  |  |  |  |  | Activity (GM15850 [1]): Active; Activity (GM16216 [2]): Active; Activity (GM16216 [8]): Active; Activity (GM15850 [9]): Active
CCCCCCCCCCCc1cc2nc3ccc(N(C)C)cc3sc-2cc1=[N+](C)C.[I-] | Dose-dependent effect |  |  | Dose-dependent effect | inactive | inactive | 18 | 82 | Toxic | 82 | Toxic | 18 |  |  |  |  |  |  |  |  | Activity (GM15850 [12]): inactive; Activity (GM15850 [13]): Active; Activity (GM16216 [14]): Active; Activity (GM16216 [18]): inactive
CN(C)c1ccc2nc3ccc(=O)cc-3sc2c1 |  |  |  |  |  |  | 15 | 85 |  | 85 |  | 15 | 131 | 122 | 113 | 114 | 115 | 115 | 115 | 115 | Activity (GM15850 [27]): Active; Activity (GM16216 [30]): 113%; Activity (GM15850 [31]): 113%; Activity (GM16216 [32]): 117%; Activity (GM16216 [33]): 111%; Activity (GM15850 [34]): 110%; Activity (GM15850 [35]): 122%; Activity (GM15850 [36]): 131%; Activity (GM15850 [37]): 111%; Activity (GM16216 [38]): Active; Activity (GM15850 [39]): 117%; Activity (GM16216 [40]): 114%; Activity (GM16216 [41]): 110%; Activity (GM16216 [42]): 113%
CCCCCCCCCCCCCCCN(C)c1ccc2nc3ccc(=O)cc-3sc2c1 |  |  |  |  |  |  |  |  |  |  |  |  | 137 | 128 | 123 | 118 | 120 | 127 | 127 | 120 | Activity (GM16216 [30]): 120%; Activity (GM15850 [31]): 120%; Activity (GM16216 [32]): 127%; Activity (GM16216 [33]): 114%; Activity (GM15850 [34]): 116%; Activity (GM15850 [35]): 128%; Activity (GM15850 [36]): 137%; Activity (GM15850 [37]): 114%; Activity (GM15850 [39]): 127%; Activity (GM16216 [40]): 118%; Activity (GM16216 [41]): 116%; Activity (GM16216 [42]): 123%
CCCCCCCCCCCCCc1cc2nc3ccc(N(C)C)cc3sc-2cc1=[N+](C)C.[I-] | Dose-dependent effect | Active | Active | Dose-dependent effect | inactive | inactive | 18 | 82 | Toxic | 82 | Toxic | 18 |  |  |  |  |  |  |  |  | 
